The test system of test [1] is β-D-glucuronidase from Helix Pommatia type HP-2. Kind of test: Quick test for enzyme recognition of GUS substrates. It is filed as biochemical. Here is the method: Dibutyl GUS substrate (compound 27) was tested. First a solution of 2 mg of product (compound 27) in 2 ml pH 8 buffer solution (Merck Titrisol 9888) was made. 1 ml of this solution was kept aside, to the other 1 ml solution 5 μl (500 UNITS) β-D-glucuronidase from Helix Pommatia type HP-2 (Sigma G7017) was added. […] The plate was developed using isooctane/acetone 60:40.

In test [2] the test system is GUS reporter enzyme in hair-root cells of a transgenic tobacco plant. Kind of test: Testing substrate in vivo, confocal microscopy of hair-root cells. The format is cell-based. The conditions noted are these: cells not permeabilized. The source says:
FIG. 1. Testing substrate (compound 27) in vivo.

Test [3] has as its system GUS transfected 293T cells. Put plainly: Enzymatic test in mammalian cells electroporated with pLNCGUS. The format is cell-based. The conditions noted are these: 10 μg/ml. The protocol: FIG. 3. Fluorescent (=GUS transfected) and non-fluorescent 293T cells with the presence of compound 27.
Cells were electroporated in the presence of 10 μg pLNCGUS and after 24 hours, compound 27 (10 mM stock in DMSO) was added to a final concentration of 10 μg/ml. Less than 5% of the cells had taken up the pLNCGUS plasmid.

On to `CCCCCc1ccc(O[C@@H]2O[C@H](C(=O)O)[C@@H](O)[C@H](O)[C@H]2O)c(-c2nc3ccc(CCCCC)cc3c(=O)[nH]2)c1` [compound 24, 1-O-(2-(4-oxo-6-n-pentyl-3H-quinazolinyl)-4-n-pentylphenyl)-β-D-glucuronic acid], for which the “reaction in GUS substrate test” value in test [1] (after 30 minutes) was “clear positive reaction”.
With `CCCCc1ccc(O[C@@H]2OC(C(=O)O)[C@@H](O)[C@@H](O)C2O)c(-c2nc3ccc(CCCC)cc3c(=O)[nH]2)c1` (some centres unmarked) [compound 27], the “detection of GUS reporter enzyme in the cell nucleus” value in test [2] is on record as “can be shown with lipophilic GUS substrate (compound 27) without permeabilizing cells”. The “fluorescence of cells in the presence of substrate” value in test [3] (293T cells electroporated with 10 μg pLNCGUS, substrate added after 24 hours) is reported as “Fluorescent”; in test [3] (cells electroporated in the absence of pLNCGUS), “weak background fluorescence”. In addition, in test [1] (2 mg in 2 ml pH 8 buffer, 500 UNITS enzyme per 1 ml, 15 minutes shaking at room temperature), the “fluorescent spot on TLC plate after incubation with GUS enzyme (conversion of non-fluorescent substrate into fluorescent product)” value is “clear fluorescent spot”.
